Results taken from US20260116910A1, “POLYCYCLIC COMPOUNDS AND METHODS THEREOF” (HEPAITECH (BEIJING) BIOPHARMA TECHNOLOGY CO., LTD., priority 2021, published 2026).
Values joined by “and” are separate entries in the source; they are usually repeats but may differ in a detail not shown here. Equal entries are not always repeated. Where two headings read alike, the source gives them in different places.

Key:
Format in all cases: cell-based
[1] = biological target: T1, human FXR (NR1H4) (Homo sapiens, UniProt Q96RI1); assay: Human FXR (NR1H4) agonist assessment, FXRE-NanoLuc reporter in HEK293T cells; conditions: for EC50: read-out: EC50
T1 sequence (Q96RI1 1-476 isoform Q96RI1-1): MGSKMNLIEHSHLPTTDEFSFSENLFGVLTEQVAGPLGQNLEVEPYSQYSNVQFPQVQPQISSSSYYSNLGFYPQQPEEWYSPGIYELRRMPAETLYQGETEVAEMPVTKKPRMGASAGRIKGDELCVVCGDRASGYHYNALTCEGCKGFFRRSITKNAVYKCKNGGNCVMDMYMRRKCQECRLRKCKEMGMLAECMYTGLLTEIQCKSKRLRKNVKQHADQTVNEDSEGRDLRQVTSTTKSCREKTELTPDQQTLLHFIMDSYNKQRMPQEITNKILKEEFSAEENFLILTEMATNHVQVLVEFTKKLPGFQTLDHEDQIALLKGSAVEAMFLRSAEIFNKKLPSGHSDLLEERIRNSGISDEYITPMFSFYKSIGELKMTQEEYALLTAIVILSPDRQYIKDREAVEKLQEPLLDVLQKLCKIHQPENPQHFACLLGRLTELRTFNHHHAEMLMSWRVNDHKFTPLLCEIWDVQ
Procedure, shortened: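 Read-out was NanoLuc luminescence in culture medium, measured 5 min after adding coelenterazine. Cells were HEK293T stably carrying human FXR and an FXRE reporter, exposed to compound for 24 hr at 37 °C. Vehicle was 0.01% DMSO. EC50 was obtained from sigmoid fits of gradient dilutions.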

[2] = biological target: MRGPRX4 (Homo sapiens, UniProt Q96LA9); assay: MRGPRX4 activation, Fluo-8 Ca2+ FLIPR assay in HEK293T cells stably expressing MRGPRX4; conditions: for EC50: MRGPRX4 activation, Ca2+ fluorescence, no activation in tested range reported as III, read-out: Activity (EC50 μM)
Chain of MRGPRX4 (Q96LA9 whole entry): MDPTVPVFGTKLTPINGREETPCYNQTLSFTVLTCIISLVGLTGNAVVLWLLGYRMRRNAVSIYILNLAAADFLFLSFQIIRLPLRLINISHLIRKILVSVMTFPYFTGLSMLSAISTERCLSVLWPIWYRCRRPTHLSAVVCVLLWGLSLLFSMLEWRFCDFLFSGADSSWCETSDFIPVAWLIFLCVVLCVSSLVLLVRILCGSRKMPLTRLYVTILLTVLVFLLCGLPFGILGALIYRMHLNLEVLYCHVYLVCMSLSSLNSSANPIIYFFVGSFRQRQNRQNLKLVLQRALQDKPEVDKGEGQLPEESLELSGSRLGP
Procedure, shortened: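 Response measured as dF/F0: 30 s baseline, then 150 s after compound addition on FLIPR Tetra, in HHBS after 40-60 min room-temperature loading with 2 μM Fluo-8 AM.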

[3] = biological target: T2, human TGR5 (Homo sapiens, UniProt Q8TDU6); assay: TGR5 agonist assessment, CRE-NanoLuc reporter in HEK293T cells
T2 sequence (Q8TDU6 1-330): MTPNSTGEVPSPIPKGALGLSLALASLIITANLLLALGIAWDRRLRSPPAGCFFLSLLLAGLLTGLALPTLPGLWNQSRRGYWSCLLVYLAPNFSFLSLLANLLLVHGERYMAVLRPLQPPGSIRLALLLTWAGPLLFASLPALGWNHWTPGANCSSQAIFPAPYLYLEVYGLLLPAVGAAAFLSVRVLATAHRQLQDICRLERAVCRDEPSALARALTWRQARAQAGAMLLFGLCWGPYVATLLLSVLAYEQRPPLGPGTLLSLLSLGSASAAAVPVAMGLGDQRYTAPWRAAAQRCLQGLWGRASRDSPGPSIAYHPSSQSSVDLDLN
Description: Cells were detached by centrifuging (1000 rpm, 3 min). The pellet was re-suspended in medium, and cell density was adjusted to about 1×10^6 cells/mL. […] Cells in the microplates were cultured overnight.
Culture medium was replaced, and compounds were added to the wells. 0.01% DMSO (v/v) served as negative control. Plates were incubated at 37° C. in 5% CO2 for 24 hr.
In the following day, a 10 μL aliquot of cell culture medium was removed from each well and combined with 40 μL culture medium plus […] assay buffer (containing 20 mM of the luciferase substrate coelenterazine). After 5 min incubation, luminescence was measured using an EnVision plate reader (PerkinElmer).
In some embodiments, gradient diluted solutions of several concentrations were used to treat cells and corresponding responses were used to fit sigmoid function and to derive EC50 in Origin.

[4] = FXR activation, HEK293T FXRE-NanoLuc reporter, 24 hr

Structure (SMILES): CC[C@H]1[C@@H](O)[C@@H]2[C@H](CC[C@]3(C)[C@@H]([C@H](C)CCNC(=O)NS(=O)(=O)N(C)C)CC[C@@H]23)[C@@]2(C)CCCC[C@@H]12 [5-15]
- Efficacy (maximum measured induction of NanoLuc, normalized to CDCA set as 100%) [1, 4]: C (100%<efficacy <=300%)
- EC50 [1, 4]: < 1 µM
- MRGPRX4 activation, Average ([2]; E3-6-2, 1st of 6 concentration columns (head not in rows shown)): 0.087
- MRGPRX4 activation, Average ([2]; E3-6-2, 3rd of 6 concentration columns (head not in rows shown)): 0.013
- MRGPRX4 activation, Average ([2]; E3-6-2, 6th of 6 concentration columns (head not in rows shown)): 0.010
- MRGPRX4 activation, Average ([2]; E3-6-2, concentration not given): 0.010
- EC50 [2]: > 100 µM
- EC50 [3]: 0.013 µM

Structure (SMILES): CC[C@H]1[C@@H](O)[C@@H]2[C@H](CC[C@]3(C)[C@@H]([C@H](C)CNC(=O)NS(=O)(=O)c4ccc(N5CCCCC5)nc4)CC[C@@H]23)[C@@]2(C)CCCC[C@@H]12 [20-3]
- Efficacy (maximum measured induction of NanoLuc, normalized to CDCA set as 100%) [1, 4]: B (300%<efficacy <=400%)
- EC50 [1, 4]: 1 to 10 µM
- EC50 [2]: > 100 µM
- Activation (%) ([2]; second E3-8-1, 4.6 nM, n = 1): 3.48%
- Activation (%) ([2]; second E3-8-1, 4.6 nM, n = 2): 2.86%
- Activation (%) ([2]; second E3-8-1, 14 nM, n = 1): 3.48%
- Activation (%) ([2]; second E3-8-1, 14 nM, n = 2): 3.79%
- Activation (%) ([2]; second E3-8-1, 41 nM, n = 1): 3.48%
- Activation (%) ([2]; second E3-8-1, 41 nM, n = 2): 3.48%
- Activation (%) ([2]; second E3-8-1, 123 nM, n = 1): 3.17%
- Activation (%) ([2]; second E3-8-1, 123 nM, n = 2): 3.79%
- Activation (%) ([2]; second E3-8-1, 370 nM, n = 1): 3.17%
- Activation (%) ([2]; second E3-8-1, 370 nM, n = 2): 3.17%
- Activation (%) ([2]; second E3-8-1, 1111 nM, n = 1): 3.79%
- Activation (%) ([2]; second E3-8-1, 1111 nM, n = 2): 3.48%
- Activation (%) ([2]; second E3-8-1, 3333 nM, n = 1): 2.55%
- Activation (%) ([2]; second E3-8-1, 3333 nM, n = 2): 3.17%
- Activation (%) ([2]; second E3-8-1, 10000 nM, n = 1): 2.55%
- Activation (%) ([2]; second E3-8-1, 10000 nM, n = 2): 3.17%
- Activation (%) ([2]; second E3-8-1, 30000 nM, n = 1): 1.63%
- Activation (%) ([2]; second E3-8-1, 30000 nM, n = 2): 2.24%

Structure (SMILES): C[C@H](CCC(=O)O)[C@H]1CC[C@H]2[C@@H]3CC[C@@H]4CCCC[C@]4(C)[C@H]3CC[C@]12C [compound 17]
- Efficacy (maximum measured induction of NanoLuc, normalized to CDCA set as 100%) [1]: B (key: A: efficacy >400%; B: 300%<efficacy <=400%; C: 100%<efficacy <=300%; D: efficacy <=100%)
- EC50 [1, 4]: 1 to 10 µM
- MRGPRX4 activation, fluorescence change (dF/F0), Average ([2]; Conc. (Log[M]) −4): 0.036 and 0.042
- EC50 [2]: < 50 µM
